Measurements: ChEMBL document CHEMBL1201862, “PubChem BioAssay data set” (2004)
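How tested: cells in 96-well plates exposed to compound for 48 hours at five concentrations. GI50 = concentration required for 50% inhibition of growth.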 Active and inactive are the calls of the source. Rule as the data show it: active = GI50 up to about 1.1 µM and inactive = higher.

Legend:
Test in all cases: NCI anticancer screen, dose series, 48 h
A498 = test system: A498
A549 = test system: A549
BT-549 = test system: BT-549
DMS-273 = test system: DMS-273
HL-60 = test system: HL-60
HT-29 = test system: HT-29
KM12 = test system: KM12
LOX IMVI = test system: LOX IMVI
MCF7 = test system: MCF7
MDA-MB-231 = test system: MDA-MB-231
NCI-H226 = test system: NCI-H226
OVCAR-3 = test system: OVCAR-3
OVCAR-8 = test system: OVCAR-8
SF-268 = test system: SF-268
SK-OV-3 = test system: SK-OV-3
SNB-19 = test system: SNB-19
SNB-75 = test system: SNB-75
SW-620 = test system: SW-620
T47D = test system: T47D
UO-31 = test system: UO-31

| SMILES | GI50 (A498) | GI50 (A549) | GI50 (BT-549) | GI50 (DMS-273) | GI50 (HL-60) | GI50 (HT-29) | GI50 (KM12) | GI50 (LOX IMVI) | GI50 (MCF7) | GI50 (MDA-MB-231) | GI50 (NCI-H226) | GI50 (OVCAR-3) | GI50 (OVCAR-8) | GI50 (SF-268) | GI50 (SK-OV-3) | GI50 (SNB-19) | GI50 (SNB-75) | GI50 (SW-620) | GI50 (T47D) | GI50 (UO-31) |
| --- | --- | --- | --- | --- | --- | --- | --- | --- | --- | --- | --- | --- | --- | --- | --- | --- | --- | --- | --- | --- |
| Clc1ccc(-c2c(C3=NCCCN3)nnn2-c2ccc(Cl)cc2)cc1 | 29.4 µM (inactive) | > 76 µM (inactive) | > 55.1 µM (inactive) | 60.5 µM (inactive) | 17.5 µM (inactive) | 21.3 µM (inactive) | 57.4 µM (inactive) | 21.1 µM (inactive) | 26.8 µM (inactive) | > 48.2 µM (inactive) | 60.3 µM (inactive) | > 78.7 µM (inactive) | > 70.3 µM (inactive) | 48.8 µM (inactive) | > 76.6 µM (inactive) | > 68.7 µM (inactive) | 29.8 µM (inactive) | 49.8 µM (inactive) | 31.3 µM (inactive) | 39.1 µM (inactive) |
| COc1ccc(-c2nc(N)n(C)c2SSc2c(-c3ccc(OC)cc3)nc(N)n2C)cc1 | 7.64 µM (inactive) | 17.5 µM (inactive) | 2.32 µM (inactive) | 3.88 µM (inactive) | 2.59 µM (inactive) | 9.59 µM (inactive) | 12.9 µM (inactive) | 2.03 µM (inactive) | 8.51 µM (inactive) | 6.78 µM (inactive) | 17.4 µM (inactive) | 7.23 µM (inactive) | 5.81 µM (inactive) | 12.6 µM (inactive) | 18.6 µM (inactive) | 12.9 µM (inactive) | 3.34 µM (inactive) | 2.23 µM (inactive) | 1.86 µM (inactive) | 5.25 µM (inactive) |
| O=C(O)CCC(NC(=O)c1ccc(Nc2nc3cc(C(F)(F)F)ccc3nc2-c2ccccc2)cc1)C(=O)O (configuration not stated) | > 100 µM (inactive) | > 86.1 µM (inactive) | – | 24.6 µM (inactive) | 84.3 µM (inactive) | 18.8 µM (inactive) | 45.9 µM (inactive) | 44.9 µM (inactive) | 64.9 µM (inactive) | – | > 100 µM (inactive) | > 100 µM (inactive) | > 100 µM (inactive) | > 100 µM (inactive) | > 100 µM (inactive) | > 100 µM (inactive) | > 79.6 µM (inactive) | 68.1 µM (inactive) | – | > 94.6 µM (inactive) |
| CCOC(=O)c1c(C)c2c(n1C)CCc1c[nH]nc1-2 | > 100 µM (inactive) | > 100 µM (inactive) | – | > 100 µM (inactive) | > 100 µM (inactive) | > 100 µM (inactive) | > 100 µM (inactive) | > 100 µM (inactive) | > 100 µM (inactive) | – | > 100 µM (inactive) | > 100 µM (inactive) | > 100 µM (inactive) | > 100 µM (inactive) | > 100 µM (inactive) | > 64.6 µM (inactive) | > 100 µM (inactive) | > 100 µM (inactive) | – | > 100 µM (inactive) |
| O=C1C=C2SC3C[C@@]24CC1[N+]1=c2c4c(c(O)c4c2=C(C=N4)CC1)N3 | 5.31 µM (inactive) | 6.17 µM (inactive) | – | 2.12 µM (inactive) | 1.46 µM (inactive) | – | 2.13 µM (inactive) | 2.51 µM (inactive) | 2.08 µM (inactive) | – | 2.29 µM (inactive) | 0.938 µM (active) | 2.03 µM (inactive) | 1.45 µM (inactive) | 2.96 µM (inactive) | 5.31 µM (inactive) | 4.61 µM (inactive) | 2.62 µM (inactive) | – | 16.6 µM (inactive) |
| Oc1cc(O)cc(/C=C/c2ccc(O)c(O)c2)c1 [PICEATANNOL] | 40.9 µM (inactive) | 18.8 µM (inactive) | – | 12.3 µM (inactive) | 2.74 µM (inactive) | 23.2 µM (inactive) | 3.52 µM (inactive) | 11.9 µM (inactive) | 20.1 µM (inactive) | – | 19.5 µM (inactive) | 25.8 µM (inactive) | 24.2 µM (inactive) | 8.59 µM (inactive) | 18.9 µM (inactive) | 24.8 µM (inactive) | 14.1 µM (inactive) | 13 µM (inactive) | – | 10.4 µM (inactive) |
